Columns and labels:
[1] = Drug loading of DB-67 into liposomes by passive encapsulation
[2] = Release of DB-67 from liposomes (dialysis at 37° C., HPLC analysis); assay type: physicochemical
[3] = animal data, intravenous administration; cited from earlier work

DB-67 concentration of liposome suspension that could be prepared (loading) ([1]; absence of cyclodextrin, all drug is entrapped): 0.05 mg/mL
DB-67 concentration of liposome suspension that could be prepared (loading) ([1]; intraliposomal pH increased to 9.5, with hydroxypropyl-β-cyclodextrin): 1.4 mg/mL
drug retention in liposomes as a function of pH ([2]; increasing pH, intravesicular cyclodextrin constant at 50 mM (FIG. 4)): increases drug retention
release profile of DB-67 from liposomes ([2]; liposomes prepared at pH 4, citrate buffer, 0.1 M hydroxypropyl-β-cyclodextrin (FIG. 2)): uniform release profile
release profile of DB-67 from liposomes ([2]; liposomes prepared at pH 7.4, citrate buffer, 0.1 M hydroxypropyl-β-cyclodextrin (FIG. 3)): uniform release
SMILES: CC[C@@]1(O)C(=O)OCc2c1cc1n(c2=O)Cc2c-1nc1ccc(O)cc1c2[Si](C)(C)C(C)(C)C [DB-67, 7-t-butyldimethylsilyl-10-hydroxycamptothecin]
lactone to total AUC [3]: > 90%

Source: patent US20090196918A1, “Liposomal formulations of hydrophobic lactone drugs in the presence of metal ions” (University of Kentucky Research Foundation, priority 2008, published 2009)
